Values of other authors, collected in patent US20070016968A1, “Treatment of pain through expression of opioid receptors” (priority 2003, published 2007).

Legend:
mice of the CXBX strain = settings: CXBX strain mice (Rossi et al 1996)
μ1-site = settings: Ling et al 1984, 1985
mice = settings: antinociception tests on mice
μ-receptor = settings: in vivo studies (Ling et al)
cloned DOR-1 receptor = cloned DOR-1 receptor (Mus musculus, UniProt P32300); settings: mouse recombinant receptor
[1] = tested on: MOR-1 knockout mice (exon-1); settings: disruption in exon-1 (Schuller et al 1999)

cloned DOR-1 receptor, sequence (P32300 whole entry): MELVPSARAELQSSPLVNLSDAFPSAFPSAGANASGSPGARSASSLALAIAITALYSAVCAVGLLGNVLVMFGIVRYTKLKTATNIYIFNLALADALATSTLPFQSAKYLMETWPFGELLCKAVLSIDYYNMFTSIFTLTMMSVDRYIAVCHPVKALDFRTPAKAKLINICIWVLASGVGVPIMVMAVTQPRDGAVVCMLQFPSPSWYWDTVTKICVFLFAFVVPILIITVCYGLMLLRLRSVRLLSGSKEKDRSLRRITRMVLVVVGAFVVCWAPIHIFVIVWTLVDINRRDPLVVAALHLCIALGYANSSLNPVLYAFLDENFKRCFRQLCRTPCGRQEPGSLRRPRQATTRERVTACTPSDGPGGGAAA

Structure (SMILES): CC(=O)O[C@H]1C=C[C@H]2[C@H]3Cc4ccc(O)c5c4[C@@]2(CCN3C)[C@H]1O5 [6-acetyl morphine]
- antinociceptive activity (mice of the CXBX strain): potently antinociceptive

Structure (SMILES): C=CCN1CC[C@]23c4c5ccc(O)c4O[C@H]2/C(=N/N=C2\CC[C@@]4(O)[C@H]6Cc7ccc(O)c8c7[C@@]4(CCN6CC=C)[C@H]2O8)CC[C@@]3(O)[C@H]1C5 [naloxonazine]
- effect on binding of radioligands to the μ1-site (μ1-site): abolish the binding of radioligands

Structure (SMILES): CN1CC[C@]23c4c5ccc(O)c4O[C@H]2[C@@H](O)C=C[C@H]3[C@H]1C5 [morphine]
- cross tolerance with morphine-6b-glucuronide, heroin or 6-acetyl morphine (mice): does not exhibit cross tolerance
- antinociceptive activity (mice of the CXBX strain): poor antinociceptive agent

Structure (SMILES): C=CCN1CC[C@]23c4c5ccc(O)c4O[C@H]2/C(=N\N)CC[C@@]3(O)[C@H]1C5 [naloxazone]
- effect on binding of radioligands to the μ1-site (μ1-site): abolish the binding of radioligands
- block of morphine-induced antinociception (μ-receptor): selectively blocked
- block of morphine-induced respiratory depression (μ-receptor): did not block
- block of the induction of morphine dependence (μ-receptor): did not block

Structure (SMILES): Oc1ccc2c3c1O[C@H]1c4oc5ccccc5c4C[C@@]4(O)[C@@H](C2)N(CC2CC2)CC[C@]314 [naltriben]
- displacement of [3H]-diprenorphine binding, compared with BNTX (cloned DOR-1 receptor): more highly displaced

Structure (SMILES): CC(=O)Oc1ccc2c3c1O[C@H]1[C@@H](OC(C)=O)C=C[C@H]4[C@@H](C2)N(C)CC[C@@]341 [heroin]
- antinociceptive activity (mice of the CXBX strain): potently antinociceptive
- antinociception [1]: still produce antinociception

Structure (SMILES): CN1CC[C@]23c4c5ccc(O)c4O[C@H]2[C@@H](O[C@@H]2O[C@H](C(=O)O)[C@@H](O)[C@H](O)[C@H]2O)C=C[C@H]3[C@H]1C5 [morphine-6b-glucuronide]
- antinociceptive activity (mice of the CXBX strain): potently antinociceptive
